Assay results from article PMC6384650, “Phenolic Compounds of Catalpa speciosa, Taxus cuspidata, and Magnolia acuminata have Antioxidant and Anticancer Activity” (Molecules, 2019).
In brackets after ≈: the same amount, converted by molar mass. Where a name gives a salt, the structure may show the parent alone.

Experiments:
[1] = tested on: HeLa cells (cervical adenocarcinoma); assay: MTT antiproliferative assay, HeLa; format: cell-based; conditions: 2 days incubation; for IC50: Homo sapiens, HeLa, 48 h, read-out: In vitro antiproliferative activity IC50, HeLa
Experimental: (§1) Fresh bark (0.25 g) was dried at 35 °C until a constant weight was obtained. The samples were ground and then dissolved in 3 mL methanol (99%) for 1 h in the dark at 25 °C. Bark solutions were centrifuged for 5 min at 10,000 rpm (7000 × g) and the supernatant was obtained (~2.7 mL). The samples were passed through a 0.45 μm polytetrafluroethylene (PTFE) nylon filter and then stored at −80 °C. Analytical grade chemicals (Sigma Aldrich, Germany) were used in the bioassays. The cancer cell lines, including cervical adenocarcinoma (HeLa), breast adenocarcinoma (MCF-7), T-cell lymphoblast like (Jurkat), urinary bladder carcinoma (T24), and colon adenocarcinoma (HT-29), were obtained from the American Type Culture Collection (ATCC).
(§2) The antiproliferative activity of bark extracts was examined in different cancer cells lines (HeLa, MCF-7, Jurkat, HT-29, and T24) and in normal cells (HEK-293) by using a modified 3-(4,5-dimethylthiazol-2-yl)-2,5-diphenyltetrazolium bromide (MTT) method. The cells were grown in 75 cm^2 flasks in MEM supplemented with 10% FBS, 17.8 mM NaHCO3, 0.1 mM non-essential amino acids, and 1 mM sodium pyruvate. They were seeded into 96-well plates at a density of 4 × 10^−4 per well, left to stand in 270 µL of medium, and incubated in an atmosphere of 37 °C and 5% CO2. Sterilin-filtered leaf extracts were added to the culture media in microtiter plates. Five doses of bark extracts were used at final concentrations of 50, 100, 200, 300, and 400 µg/mL in culture medium. Untreated cells were considered used as negative controls and vinblastine sulfate and taxol treatment were used as the positive controls. After incubation of the culture medium for 2 days at 37 °C and 5% CO2, phosphate buffer saline (PBS) washes were performed to remove extract traces and the medium supplied was 12 mM MTT dissolved in PBS. Subsequently, 0.04 N HCl dissolved in isopropanol was mixed in each well, left to stand for 40 min, and the absorbance at 570 nm was determined by using a microplate reader (Thermo Fisher Scientific, Waltham, Massachusetts, USA). The percentage inhibition of antiproliferation activity was calculated in triplicate:
(§3) % Inhibition = (Abs.570 nm control—Abs.570 nm sample)/Abs.570 nm control × 100. Subsequently, IC50 values were obtained by plotting the percentage of cell viability against the extract concentration and expressed in µg/mL.

[2] = tested on: Jurkat cells (T-cell lymphoblast like); assay: MTT antiproliferative assay, Jurkat; format: cell-based; conditions: 2 days incubation; for IC50: Homo sapiens, Jurkat, 48 h, read-out: In vitro antiproliferative activity IC50, Jurkat
Experimental: as §1, §2, §3

[3] = tested on: T24 cells (urinary bladder carcinoma); assay: MTT antiproliferative assay, T24; format: cell-based; conditions: 2 days incubation; for IC50: Homo sapiens, T-24, 48 h, read-out: In vitro antiproliferative activity IC50, T24
Experimental: as §1, §2, §3

[4] = tested on: HT-29 cells (colon adenocarcinoma); assay: MTT antiproliferative assay, HT-29; format: cell-based; conditions: 2 days incubation; for IC50: Homo sapiens, HT-29, 48 h, read-out: In vitro antiproliferative activity IC50, HT-29
Experimental: as §1, §2, §3

HEK-293 cells = assay: MTT antiproliferative assay, normal HEK-293 cells; format: cell-based; conditions: 2 days incubation; for IC50: Homo sapiens, HEK293, 48 h, read-out: In vitro antiproliferative activity IC50, HEK-293
Experimental: as §2, §3

[5] = DPPH free radical scavenging assay; conditions: 30 min incubation, absorbance 517 nm
Experimental: (§4) The DPPH and β-carotene-linoleic acid assays were used in the Faculty of Food and Agricultural Sciences, King Saud University to determine the antioxidant activities of bark extract. For the DPPH assay, the samples were incubated for 30 min and the absorbance of the samples at 517 nm was measured. In the β-carotene-linoleic acid assay, the absorbance of the samples at 470 nm was measured. […] A standard antioxidant (butylated hydroxytoluene, BHT) was used as a positive control and the inhibition by the concentration of each sample was compared with that of the BHT and blank. The antioxidant activities were repeated twice in duplicates.

[6] = β-carotene-linoleic acid assay; conditions: absorbance 470 nm
Experimental: as §4

[7] = tested on: MCF-7 cells (breast adenocarcinoma); assay: MTT antiproliferative assay, MCF-7; format: cell-based; conditions: 2 days incubation; for IC50: Homo sapiens, MCF7, 48 h, read-out: In vitro antiproliferative activity IC50, MCF-7
Experimental: as §1, §2, §3

[8] = tested on: MCF-7, HeLa, Jurkat, T24, and HT-29 cells; assay: MTT antiproliferative assay, cancer cell line panel; format: cell-based; conditions: most cancer cells
Experimental: The samples were ground and then dissolved in 3 mL methanol (99%) for 1 h in the dark at 25 °C. Bark solutions were centrifuged for 5 min at 10,000 rpm (7000 × g) and the supernatant was obtained (~2.7 mL). The samples were passed through a 0.45 μm polytetrafluroethylene (PTFE) nylon filter and then stored at −80 °C. Analytical grade chemicals (Sigma Aldrich, Germany) were used in the bioassays. The cancer cell lines, including cervical adenocarcinoma (HeLa), breast adenocarcinoma (MCF-7), T-cell lymphoblast like (Jurkat), urinary bladder carcinoma (T24), and colon adenocarcinoma (HT-29), were obtained from the American Type Culture Collection (ATCC). […] The cells were grown in 75 cm^2 flasks in MEM supplemented with 10% FBS, 17.8 mM NaHCO3, 0.1 mM non-essential amino acids, and 1 mM sodium pyruvate. […] Sterilin-filtered leaf extracts were added to the culture media in microtiter plates. […] Untreated cells were considered used as negative controls and vinblastine sulfate and taxol treatment were used as the positive controls. After incubation of the culture medium for 2 days at 37 °C and 5% CO2, phosphate buffer saline (PBS) washes were performed to remove extract traces and the medium supplied was 12 mM MTT dissolved in PBS. Subsequently, 0.04 N HCl dissolved in isopropanol was mixed in each well, left to stand for 40 min, and the absorbance at 570 nm was determined by using a microplate reader (Thermo Fisher Scientific, Waltham, Massachusetts, USA). The percentage inhibition of antiproliferation activity was calculated in triplicate: % Inhibition = (Abs.570 nm control—Abs.570 nm sample)/Abs.570 nm control × 100. Subsequently, IC50 values were obtained by plotting the percentage of cell viability against the extract concentration and expressed in µg/mL.

cancer cells = assay: Apoptotic cell population by flow cytometry (Annexin V); format: cell-based; conditions: treatment at IC50, 24/48 h, versus untreated control
Experimental: Flow cytometry (FAC Scan, Becton Dickinson, Iowa, USA) was used to measure the apoptotic cell population. […] The cells were detached by using trypsin (0.25%) in Hank’s balanced salt solution (Thermo Fisher Scientific, Berlin, Germany). For staining the cells, the Annexin V apoptosis detection kit (Sigma, St. Louis, MO, USA) was used. Briefly, the cells were incubated in the dark at 37 °C for 15 min and washed with cold PBS, and the apoptotic populations were shown by the flow cytometer in quadrants: Lower left (viable cells), upper left (necrotic cells), lower right (early apoptotic cells), and upper right (late apoptotic cells).

Molecule	IC50 [1] [µg/mL]	IC50 [2] [µg/mL]	IC50 [3] [µg/mL]	IC50 [4] [µg/mL]	IC50 [7] [µg/mL]	In vitro antiproliferative activity IC50, HeLa [1] [µg/mL]	In vitro antiproliferative activity IC50, MCF-7 [7] [µg/mL]	In vitro antiproliferative activity IC50, Jurkat [2] [µg/mL]	In vitro antiproliferative activity IC50, T24 [3] [µg/mL]	In vitro antiproliferative activity IC50, HT-29 [4] [µg/mL]	IC50 (HEK-293 cells) [µg/mL]	Antiproliferative activity against cancer cells (in words) [8]	In vitro antiproliferative activity IC50, HEK-293 (HEK-293 cells)	other results
Cc1cc(C(C)(C)C)c(O)c(C(C)(C)C)c1 [BHT, butylated hydroxytoluene]	–	–	–	–	–	–	–	–	–	–	–	–	–	DPPH Free Radical Scavenging Activity (IC50) [5]: 2.9 ± 0.1c µg mL^−1; β-Carotene-Linoleic Acid Assay (IC50) [6]: 3.2 ± 0.1c µg mL^−1
O=C(O)c1ccc(O)c(O)c1 [Protocatechuic acid, 3,4-dihydroxybenzoic acid]	39.1 ± 2.3 (≈ 254 µM)	47.4 ± 2.1 (≈ 307 µM)	176 ± 2.1 (≈ 1140 µM)	95.3 ± 3.3 (≈ 619 µM)	19 ± 2.1 (≈ 123 µM)	–	–	–	–	–	> 400	notable antiproliferative activity against most cancer cells	–	–
CC[C@]1(O)C[C@H]2CN(CCc3c([nH]c4ccccc34)[C@@](C(=O)OC)(c3cc4c(cc3OC)N(C=O)[C@H]3[C@@](O)(C(=O)OC)[C@H](OC(C)=O)[C@]5(CC)C=CCN6CC[C@]43[C@@H]65)C2)C1 [Vincristine]	8.5 ± 0.1 (≈ 10.3 µM)	0.4 ± 0.05 (≈ 0.485 µM)	89.8 ± 2.5 (≈ 109 µM)	47.3 ± 0.2 (≈ 57.3 µM)	4.63 ± 1.8 (≈ 5.61 µM)	–	–	–	–	–	78.3 ± 1.6 (≈ 94.9 µM)	–	–	–
CC(=O)O[C@H]1C(=O)[C@@]2(C)[C@H]([C@H](OC(=O)c3ccccc3)[C@]3(O)C[C@H](OC(=O)[C@H](O)[C@@H](NC(=O)c4ccccc4)c4ccccc4)C(C)=C1C3(C)C)[C@]1(OC(C)=O)CO[C@@H]1C[C@@H]2O [Taxol]	–	–	–	–	0.09 ± 0.009 (≈ 0.105 µM)	–	–	–	–	–	–	–	–	–

Second part, led by results:

IC50 [1] [µg/mL]	IC50 [2] [µg/mL]	IC50 [3] [µg/mL]	IC50 [4] [µg/mL]	IC50 [7] [µg/mL]	In vitro antiproliferative activity IC50, HeLa [1] [µg/mL]	In vitro antiproliferative activity IC50, MCF-7 [7] [µg/mL]	In vitro antiproliferative activity IC50, Jurkat [2] [µg/mL]	In vitro antiproliferative activity IC50, T24 [3] [µg/mL]	In vitro antiproliferative activity IC50, HT-29 [4] [µg/mL]	Molecule	IC50 (HEK-293 cells) [µg/mL]	Antiproliferative activity against cancer cells (in words) [8]	In vitro antiproliferative activity IC50, HEK-293 (HEK-293 cells)	other results
2.7 ± 0.06	0.1 ± 0.09	65.7 ± 2.1	21 ± 0.1	–	–	–	–	–	–	CC[C@]1(O)C[C@@H]2CN(CCc3c([nH]c4ccccc34)[C@@](C(=O)OC)(c3cc4c(cc3OC)N(C)[C@H]3[C@@](O)(C(=O)OC)[C@H](OC(C)=O)[C@]5(CC)C=CCN6CC[C@]43[C@@H]65)C2)C1 [Vinblastine sulfate]	50.1 ± 2.3	–	–	–
–	–	–	–	–	51.73 ± 3.5	43.85 ± 1.3	39.11 ± 2.3	227.26 ± 5.1	126.26 ± 4.4	COc1cc(/C=C/C(=O)O)ccc1O [Ferulic acid]	–	notable antiproliferative activity against most cancer cells	˃400 µg/mL	–
–	–	–	–	–	65.31 ± 2.4	58.11 ± 0.9	63.09 ± 1.4	176.12 ± 3.6	113.15 ± 2.9	Hydroxycaffeic acid	–	notable antiproliferative activity against most cancer cells	˃400 µg/mL	–
–	–	–	–	–	36.48 ± 1.2	17.64 ± 1.8	38.16 ± 0.7	183.28 ± 4.3	96.16 ± 1.5	O.Oc1cc(O)c2c(c1)O[C@H](c1ccc(O)c(O)c1)[C@@H](O)C2 [Catechin]	–	notable antiproliferative activity against most cancer cells	˃400 µg/mL	Accumulation of necrotic, early and late apoptotic cells (cancer cells): high accumulation of early and late apoptotic cells
